Assay results published in US20090142429A1, “SILICIBACTER SP. STRAIN USEFUL FOR GENETIC TRANSFORMATION OF MARINE ALGAE AND PRODUCTION OF ANTIBIOTIC AGENTS” (UNIVERSITY OF MARYLAND BIOTECHNOLOGY INSTITUTE, priority 2005, published 2009).
“And” between values parts separate entries of the source, which are not always exact repeats. Equal entries are not always repeated.

Experiments:
[1] = system: Silicibacter sp. strain TM1040; experiment: Capillary assay: reduction in chemotaxis toward P. piscicida homogenates by externally supplied attractant; assay type: cell-based; conditions: for % Reduction in CFU per capillary compared to the control / No. of bacteria per capillary (CFU · 10^4), attractant added to external buffer: 200 μM attractant in external buffer; for No. of bacteria per capillary (CFU · 10^4), attractant added to external buffer: SD in parentheses; for mean number of bacteria in the untreated capillaries: untreated homogenate, attractant supplied externally in the buffer
Description: The capillary assay was also used to measure the reduction in chemotaxis through competition when a known attractant was supplied exogenously (i.e., outside the capillary). In this variation, the quantitative capillary method was used, but a known attractant was included in the CB used to suspend the washed cells. A capillary containing a mixture of potential chemoattractant molecules was then placed in the chamber and incubated as described earlier. At the completion of the assay, the percent reduction in chemotaxis was calculated using the following formula: % reduction=[1−(CFU ml^−1exogenous/CFU ml^−1control)]×(100).
Dinoflagellates and Rhodomonas sp. were grown to late exponential phase (ca. 10^5 to 10^6 cells per ml), and the cell density was measured using a Coulter Counter (model M/SZRII; Beckman Coulter). Dinoflagellates were harvested after starvation of the culture to remove Rhodomonas prey algae, which was confirmed by microscopy. The cell densities in P. piscicida and Rhodomonas cultures were normalized to 10^5 cells per ml, and each culture was then pelleted by centrifugation at 4,000×g and 4° C. for 10 min. The supernatant was removed, and the pellets were separately resuspended with either 1 ml of ice-cold distilled water or CB. The cells were homogenized by sonication (Sonic Dismembrator; Fisher), and cell disruption was assessed by microscopy. To examine the heat sensitivity of chemotaxis elicitors, an aliquot of each homogenate was heated to 80° C. for 15 min prior to the assay. All homogenates were then stored at −20° C. When required, the homogenates were thawed, held on ice, and used in the capillary assay as described.

[2] = Destruction of DMSP by heating (GC-FID); assay type: physicochemical
Description: The concentration of DMSP in 1 ml-samples of heated or boiled 200 μM DMSP and in heated and untreated P. piscicida homogenates was measured using gas chromatography with flame ionization detection, as previously described.
Destruction of 200 μM DMSP in CB was assessed after heating the samples to either 80 or 100° C. for 15 min. At both temperatures, negligible (<2%) loss of DMSP was observed.
An alternative explanation for why heat reduced the chemoattractant quality of the homogenates is that heat acts indirectly through an intermediate to inactivate DMSP. This hypothesis predicts that the concentration of DMSP decreases when a homogenate is heated. The DMSP concentration in untreated and heated homogenates was measured. In untreated P. piscicida homogenates the mean concentration of DMSP was 8.21±1.2 μM. After the homogenate was heated, the concentration of DMSP fell below the level of detectability (<1 μM).

[3] = system: Silicibacter sp. strain TM1040; experiment: Chemotaxis plate screening assay (change in motile colony morphology); assay type: cell-based; conditions: for Response: change in motile colony morphology of TM1040 in response to attractants, compared to the control / chemotactic response of TM1040 in plate assay: BM glycerol motility agar; for Change in morphology with carbon source Alanine / Change in morphology with carbon source Glucose / Change in morphology with carbon source Glycerol / Change in morphology with carbon source Succinate: BM motility agar; for Change in morphology with carbon source Alanine: alanine as single carbon source; for Change in morphology with carbon source Glucose: glucose as single carbon source; for Change in morphology with carbon source Glycerol: glycerol as single carbon source; for Change in morphology with carbon source Succinate: succinate as single carbon source; for Change in morphology with carbon source Alanine: key: −: minus indicates no change compared to distilled water or no attractant controls; +: either one or two pluses indicates moderate to strong alteration in motile colony phenotype (respectively); ++: either one or two pluses indicates moderate to strong alteration in motile colony phenotype (respectively); for Change in morphology with carbon source Glucose: key: −: minus indicates no change compared to distilled water or no attractant controls; +: either one or two pluses indicates moderate to strong alteration in motile colony phenotype (respectively); ++: either one or two pluses indicates moderate to strong alteration in motile colony phenotype (respectively); for Change in morphology with carbon source Glycerol: key: −: minus indicates no change compared to distilled water or no attractant controls; +: either one or two pluses indicates moderate to strong alteration in motile colony phenotype (respectively); ++: either one or two pluses indicates moderate to strong alteration in motile colony phenotype (respectively); for Response: change in motile colony morphology of TM1040 in response to attractants, compared to the control: key: −: minus indicates no change compared to distilled water or no attractant controls; +: either one or two pluses indicates moderate to strong alteration in motile colony phenotype (respectively); ++: either one or two pluses indicates moderate to strong alteration in motile colony phenotype (respectively)
Description: Following 36 h of incubation, a putative attractant was placed approximately 5 cm from the site of inoculation (or 2.5 cm in front of the periphery of motile cells). Possible chemoattractant compounds were administered as either a sterile solid or concentrated stock solutions. The cells were further incubated for 16 h to allow for additional outward movement, at which time measurement of diameter, shape, and chemotaxis rings internal to the motile colony were made.
[…] Bacteria inoculated into the center of the agar consume nutrients and create a concentration gradient that increases outward from the point of inoculation. The bacteria sense the increasing gradient and swim outwards, seeking higher concentrations of nutrients, which is manifested as a symmetrical “motile” colony. If an attractant is placed at a short distance in front of the advancing motile colony, it forms a second gradient moving towards the oncoming cells that will affect the symmetry of the colony by reducing the net outward swimming of the bacteria.

[4] = system: Silicibacter sp. strain TM1040; experiment: Quantitative capillary chemotaxis assay; assay type: cell-based; conditions: for response factor (mean): pure compounds, FIG. 12, capillaries filled with 2 μM or 200 μM attractant; for mean concentration of bacteria in methionine-filled capillaries: starved cells
Source text: The cells were pelleted by centrifugation at 4,000×g in a tabletop centrifuge (Centra-CL2; International Equipment Company), the supernatant was discarded, and the pellet was resuspended in chemotaxis buffer (CB) (15 g of ASW, 6 g of Tris-HCl per liter [pH 7.6]) to the same OD. Five hundred microliters of washed cells was placed in one of the wells of the Palleroni chamber, followed by a 1-μl capillary (Microcaps; Drummond) filled with a putative attractant diluted in CB. This process was repeated for each of the four wells in the chamber. A capillary filled with CB only was included in each experiment as a negative control. Depending on the experiment, capillaries remained in the chambers for 0.5 to 2 h, after which time they were removed, and the contents of each capillary were serially diluted in CB. Final dilutions were then spread on HIASW agar plates and incubated for 16 h at 30° C. The concentration of TM1040 in each capillary was derived by counting the CFU on each plate and multiplying by the appropriate dilution factor. […]

[5] = heated (80° C. for 15 min) P. piscicida homogenate
[6] = untreated P. piscicida homogenate

| Structure (SMILES) | % Reduction in CFU per capillary compared to the control [1, 5] | No. of bacteria per capillary (CFU · 10^4), attractant added to external buffer [1, 5] | % Reduction in CFU per capillary compared to the control [1, 6] | No. of bacteria per capillary (CFU · 10^4), attractant added to external buffer [1, 6] | mean number of bacteria in the untreated capillaries [1] | Response: change in motile colony morphology of TM1040 in response to attractants, compared to the control [3] | chemotactic response of TM1040 in plate assay [3] | Change in morphology with carbon source Alanine [3] | Change in morphology with carbon source Glucose [3] | Change in morphology with carbon source Glycerol [3] | Change in morphology with carbon source Succinate [3] | response factor (mean) [4] | further results |
| --- | --- | --- | --- | --- | --- | --- | --- | --- | --- | --- | --- | --- | --- |
| C[S+](C)CCC(=O)[O-] [DMSP, Dimethylsulfoniopropionate] | 11% and 11.68% | 3.10 (±0.16) CFU · 10^4 | 54% and 54.01% | 3.33 (±0.15) CFU · 10^4 | 3.33×10^4 CFU per ml | ++ | marked deformation in the periphery of the motile colony | + | − | ++ | + | 8.2 | loss of DMSP ([2]; 200 μM DMSP in CB heated to either 80 or 100° C. for 15 min): < 2%; concentration of DMSP in P. piscicida homogenates ([2]; after the homogenate was heated, level of detectability): < 1 µM; mean concentration of DMSP in P. piscicida homogenates ([2]; untreated homogenate): 8.21 ± 1.2 µM |
| CSCC[C@H](N)C(=O)O [methionine] | 48% | 1.80 (±0.11) CFU · 10^4 | 58% | 3.03 (±0.32) CFU · 10^4 | 3.03×10^4 CFU per ml | ++ | significant effects on the periphery of the motile colony |  |  |  |  | 9.8 | % Reduction in CFU per capillary compared to the control ([1]; heated (80° C. for 15 min) P. piscicida homogenate, listed as Methionine): 48.72%; % Reduction in CFU per capillary compared to the control ([1]; untreated P. piscicida homogenate, listed as Methionine): 58.15%; mean concentration of bacteria in methionine-filled capillaries ([4]; 0.5 h, 200 μM): 5.3×10^7 CFU per ml; mean concentration of bacteria in methionine-filled capillaries ([4]; 1 h, 200 μM): 1.8×10^8 CFU per ml; mean concentration of bacteria in methionine-filled capillaries ([4]; 1.5 h, 200 μM): 2.4×10^8 CFU per ml; mean concentration of bacteria in methionine-filled capillaries ([4]; 2 h, 200 μM): 2.4×10^8 CFU per ml; maximum mean concentration of bacteria in methionine-filled capillaries ([4]; without starvation, peak at 1.5 h, 200 μM): 2.1×10^8 CFU per ml |
| CC(C)[C@H](N)C(=O)O [valine] | 74% | 0.91 (±0.24) CFU · 10^4 | 78% | 1.53 (±0.15) CFU · 10^4 | 1.53×10^4 CFU per ml | ++ | significant effects on the periphery of the motile colony | + | − | ++ | + | 6.1 | % Reduction in CFU per capillary compared to the control ([1]; heated (80° C. for 15 min) P. piscicida homogenate, listed as Valine): 74.07%; % Reduction in CFU per capillary compared to the control ([1]; untreated P. piscicida homogenate, listed as Valine): 78.87% |
